# Laboratory results reported in patent US11046691B1 (IDEAYA BIOSCIENCES, INC., priority 2018, dated 2021).
# Target: hMAT2A (Homo sapiens (Human), UniProt P31153)
# Assay: Phosphate Sensor Fluorescence Assay (MAT2A enzyme inhibition)
# Format: biochemical
# Details: L-methionine 500 uM, ATP 500 uM, class symbols
# Method in brief: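 Recombinant MAT2A preincubated 15 min at room temperature with compound, then reacted 1 h at room temperature with 500 uM L-methionine and 500 uM ATP in Tris pH 7.5 buffer containing PNP/7-MEG.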
# Chain of hMAT2A (P31153 whole entry): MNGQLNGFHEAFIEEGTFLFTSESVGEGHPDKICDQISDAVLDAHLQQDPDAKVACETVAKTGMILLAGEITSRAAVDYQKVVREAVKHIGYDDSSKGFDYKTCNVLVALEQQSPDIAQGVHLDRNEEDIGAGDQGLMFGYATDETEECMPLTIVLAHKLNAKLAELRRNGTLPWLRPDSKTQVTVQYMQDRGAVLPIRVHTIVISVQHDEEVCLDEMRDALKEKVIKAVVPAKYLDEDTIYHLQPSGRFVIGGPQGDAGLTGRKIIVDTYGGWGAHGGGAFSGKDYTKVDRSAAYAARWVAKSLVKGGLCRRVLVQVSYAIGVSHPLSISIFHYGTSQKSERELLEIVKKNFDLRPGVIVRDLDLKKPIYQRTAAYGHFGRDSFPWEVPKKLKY
row,IC50,SMILES
1,< 0.2 µM,"[2H]C([2H])([2H])Nc1nc(=O)n(-c2ccccc2Cl)c2cc(Cl)ccc12 [Example 347, 7-chloro-1-(2-chlorophenyl)-4-((methyl-d3)amino)quinazolin-2(1H)-one]"
2,< 0.2 µM,"CNc1nc(=O)n(-c2ccccc2)c2cc(Cl)cc(OCC3CC3)c12 [Example 348, 7-chloro-5-(cyclopropylmethoxy)-4-(methylamino)-1-phenylhydro-quinazolin-2-one]"
3,< 0.2 µM,"CNc1nc(=O)n(-c2ccccc2)c2cc(Cl)cc(OCC(F)(F)F)c12 [Example 350, 7-chloro-4-(methylamino)-1-phenyl-5-(2,2,2-trifluoroethoxy)hydroquinazolin-2-one]"
4,< 0.2 µM,"CNc1nc(=O)n(-c2ccccc2Br)c2cc(C3CC3)ccc12 [Example 351, 1-(2-bromophenyl)-7-cyclopropyl-4-(methylamino)hydroquinazolin-2-one]"
5,< 0.2 µM,"CNc1nc(=O)n(-c2ccccc2C)c2cc(C3CC3)ccc12 [Example 352, 7-cyclopropyl-4-(methylamino)-1-(2-methylphenyl)hydroquinazolin-2-one]"
6,< 0.2 µM,"CNc1nc(=O)n(-c2cccc(C3CC3)c2)c2cc(Cl)ccc12 [Example 353, 7-chloro-1-(3-cyclopropylphenyl)-4-(methylamino)hydroquinazolin-2-one]"
7,< 0.2 µM,CNc1nc(=O)n(-c2cccc(C(F)F)c2)c2cc(Cl)ccc12 [Example 355]
8,1 to 10 µM,"O=c1nc(O)c2ccc(Cl)cc2n1-c1ccc2[nH]ncc2c1 [Example 357, 1-(1H-indazol-5-yl)-7-chloro-4-hydroxy-hydroquinazolin-2-one]"
9,< 0.2 µM,"O=c1[nH]c(=O)n(-c2cnccc2Cl)c2nc(C(F)(F)F)ccc12 [Example 358, 1-(4-chloropyridin-3-yl)-7-(trifluoro-methyl)pyrido[2,3-d]pyrimidine-2,4(1H,3H)-dione]"
10,< 0.2 µM,"O=c1[nH]c(=O)n(-c2cccnc2)c2nc(C(F)(F)F)ccc12 [Example 359, 1-(pyridin-3-yl)-7-(trifluoromethyl)-pyrido[2,3-d]pyrimidine-2,4(1H,3H)-dione]"
11,< 0.2 µM,"O=c1[nH]c(=O)n(-c2cccnc2)c2cc(C(F)(F)F)ccc12 [Example 362, 1-(pyridin-3-yl)-7-(trifluoromethyl)-1,3-dihydroquinazoline-2,4-dione]"
12,< 0.2 µM,"O=c1[nH]c(=O)n(-c2cccc3ncsc23)c2nc(C(F)(F)F)ccc12 [Example 363, 1-benzothiazol-7-yl-7-(trifluoromethyl)-pyrido[2,3-d]pyrimidine-2,4(1H,3H)-dione]"
13,< 0.2 µM,"Cc1ncccc1-n1c(=O)[nH]c(=O)c2ccc(C(F)(F)F)nc21 [Example 364, 1-(2-methylpyridin-3-yl)-7-(trifluoro-methyl)pyrido[2,3-d]pyrimidine-2,4(1H,3H)-dione]"
14,< 0.2 µM,"Cc1ccncc1-n1c(=O)[nH]c(=O)c2ccc(C(F)(F)F)nc21 [Example 365, 1-(4-methylpyridin-3-yl)-7-(trifluoro-methyl)pyrido[2,3-d]pyrimidine-2,4(1H,3H)-dione]"
15,< 0.2 µM,"[2H]C([2H])([2H])Nc1nc(=O)n(-c2ccccc2)c2nc(C(F)(F)F)ccc12 [Example 366, 4-((methyl-d3)amino)-1-phenyl-7-(trifluoromethyl)pyrido[2,3-d]pyrimidin-2(1H)-one]"
16,< 0.2 µM,"[2H]C([2H])([2H])Nc1nc(=O)n(-c2ccccc2C)c2cc(C(F)(F)F)ccc12 [Example 367, 4-((methyl-d3)amino)-1-(o-tolyl)-7-(trifluoromethyl)quinazolin-2(1H)-one]"
17,< 0.2 µM,"[2H]C([2H])([2H])Nc1nc(=O)n(-c2ccccc2Br)c2cc(Cl)ccc12 [Example 368, 1-(2-bromophenyl)-7-chloro-4-((methyl-d3)amino)quinazolin-2(1H)-one]"
18,< 0.2 µM,"[2H]C([2H])([2H])Nc1nc(=O)n(-c2ccccc2)c2cc(C(F)(F)F)ccc12 [Example 369, 4-((methyl-d3)amino)-1-phenyl-7-(trifluoromethyl)quinazolin-2(1H)-one]"
19,< 0.2 µM,"CNc1nc(=O)n(-c2ncccc2Cl)c2cc(Cl)ccc12 [Example 370, 7-chloro-1-(3-chloro(2-pyridyl))-4-(methylamino)hydroquinazolin-2-one]"
20,< 0.2 µM,CNc1nc(=O)n(-c2ncccc2C)c2cc(Cl)ccc12 [Example 371]

row,IC50,SMILES
1,< 0.2 µM,"O=c1nc(N2CC(O)C2)c2ccc(C3CC3)cc2n1-c1ccccc1 [Example 372, 7-cyclopropyl-4-(3-hydroxyazetidin-1-yl)-1-phenylhydroquinazolin-2-one]"
2,< 0.2 µM,O=c1nc(NCC(F)F)c2ccc(C3CC3)cc2n1-c1ccccc1 [Example 373]
3,< 0.2 µM,"O=c1nc(N2CC[C@@H](O)C2)c2ccc(C3CC3)cc2n1-c1ccccc1 [Example 374, 4-((3R)-3-hydroxypyrrolidinyl)-7-cyclopropyl-1-phenylhydroquazolin-2-one]"
4,< 0.2 µM,CNc1nc(=O)n(-c2cnccc2C)c2nc(C(F)(F)F)ccc12 [Example 376]
5,< 0.2 µM,"CNc1nc(=O)n(-c2cnccc2Cl)c2nc(C(F)(F)F)ccc12 [Example 377, 1-(4-chloropyridin-3-yl)-4-(methyl-amino)-7-(trifluoromethyl)pyrido[2,3-d]pyrimidin-2(1H)-one]"
6,< 0.2 µM,"CNc1nc(=O)n(-c2cccnc2)c2nc(C(F)(F)F)ccc12 [Example 378, 4-(methylamino)-1-(pyridin-3-yl)-7-(trifluoromethyl)pyrido[2,3-d]pyrimidin-2(1H)-one]"
7,< 0.2 µM,"[2H]C([2H])([2H])Nc1nc(=O)n(-c2ccccc2Cl)c2nc(C(F)(F)F)ccc12 [Example 379, 1-(2-chlorophenyl)-4-((methyl-d3)-amino)-7-(trifluoromethyl)pyrido[2,3-d]pyrimidin-2(1H)-one]"
8,< 0.2 µM,"CNc1nc(=O)n(-c2cccnc2C)c2nc(C(F)(F)F)ccc12 [Example 380, 4-(methylamino)-1-(2-methylpyridin-3-yl)-7-(trifluoromethyl)pyrido[2,3-d]-pyrimidin-2(1H)-one]"
9,< 0.2 µM,"CNc1nc(=O)n(-c2cccc3ncsc23)c2nc(C(F)(F)F)ccc12 [Example 381, 1-benzothiazol-7-yl-4-(methylamino)-7-(trifluoromethyl)pyrido[2,3-d]pyrimidin-2(1H)-one]"
10,0.5 to 1 µM,"Nc1nc(=O)n(-c2ccccc2)c2cc(Cl)cc(Cl)c12 [Example 383, 4-amino-5,7-dichloro-1-phenyl-hydroquinazolin-2-one]"
11,< 0.2 µM,"Cc1ccc2c(N3CC(O)C3)nc(=O)n(-c3ccccc3)c2n1 [Example 384, 4-(3-hydroxyazetidin-1-yl)-7-methyl-1-phenylpyrido[2,3-d]pyrimidin-2(1H)-one]"
12,< 0.2 µM,"O=c1nc(NCC(F)(F)F)c2ccc(C3CC3)cc2n1-c1ccccc1 [Example 385, 7-cyclopropyl-1-phenyl-4-[(2,2,2-trifluoroethyl)amino]hydroquinazolin-2-one]"
13,< 0.2 µM,"O=c1nc(N2CCCC2)c2ccc(C3CC3)cc2n1-c1ccccc1 [Example 386, 7-cyclopropyl-1-phenyl-4-pyrrolidin-1-ylhydroquinazolin-2-one]"
14,1 to 10 µM,"Nc1nc(=O)n(-c2ccccc2)c2cc(Cl)cc(-n3cccn3)c12 [Example 387, 4-amino-7-chloro-1-phenyl-5-pyrazol-1-ylhydroquinazolin-2-one]"
15,< 0.2 µM,"O=c1[nH]c(=O)n(-c2ccccc2Cl)c2nc(C(F)(F)F)ccc12 [Example 388, 1-(2-chlorophenyl)-7-(trifluoromethyl)-1,3-dihydropyridino[2,3-d]pyrimidine-2,4-dione]"
16,< 0.2 µM,"O=c1nc(NCC(F)(F)F)c2ccc(C(F)(F)F)nc2n1-c1ccccc1Cl [Example 389, 1-(2-chlorophenyl)-4-[(2,2,2-trifluoro-ethyl)amino]-7-(trifluoro-methyl)-pyrido[2,3-d]pyrimidin-2(1H)-one]"
17,< 0.2 µM,"CNc1nc(=O)n(-c2cncc(O)c2)c2nc(C(F)(F)F)ccc12 [Example 390, 1-(5-hydroxypyridin-3-yl)-4-(methyl-amino)-7-(trifluoromethyl)pyrido[2,3-d]-pyrimidin-2(1H)-one]"
18,< 0.2 µM,"CNc1nc(=O)n(-c2ccnc(O)c2)c2nc(C(F)(F)F)ccc12 [Example 391, 1-(2-hydroxypyridin-4-yl)-4-(methyl-amino)-7-(trifluoromethyl)-pyrido[2,3-d]pyrimidin-2(1H)-one]"
19,< 0.2 µM,"C#Cc1ccc2c(NC)nc(=O)n(-c3ccccc3)c2c1 [Example 394, 7-ethynyl-4-(methylamino)-1-phenyl-hydroquinazolin-2-one]"

# Same assay, conditions: L-methionine 500 uM, ATP 500 uM, numeric bound
row,IC50,SMILES
1,> 10 µM,"CNc1nc(=O)n(-c2ccccc2)c2cc(Cl)cc(OC(C)C)c12 [Example 349, 7-chloro-4-(methylamino)-5-(methyl-ethoxy)-1-phenylhydroquinazolin-2-one]"
2,> 10 µM,"O=c1[nH]c(=O)n(-c2cccc(C(F)F)c2)c2cc(Cl)ccc12 [Example 354, 7-chloro-1-(3-difluoromethylphenyl)-quinazoline-2,4(1H,3H)-dione]"
3,> 10 µM,"O=c1[nH]c(=O)n(-c2ccccc2Cl)c2c(Cl)c(C(F)(F)F)ccc12 [Example 360, 8-chloro-1-(2-chlorophenyl)-7-(trifluoro-methyl)pyrido[2,3-d]pyrimidine-2,4(1H,3H)-dione-1]"
4,> 10 µM,O=c1[nH]c(=O)n(-c2ccccc2)c2c(Cl)c(C(F)(F)F)ccc12 [Example 361]
5,> 10 µM,"Cc1ccccc1-n1c(=O)[nH]c(=O)c2ccc(C3CC3)cc21 [Example 375, 7-cyclopropyl-1-(o-tolyl)quinazoline-2,4(1H,3H)-dione]"
6,> 10 µM,"CCC(C)c1ccc2c(NC)nc(=O)n(-c3ccccc3)c2c1 (stereo not shown) [Example 382, 4-(methylamino)-7-(methylpropyl)-1-phenylhydroquinazolin-2-one]"
7,> 10 µM,"CNc1nc(=O)n(-c2cnccc2O)c2nc(C(F)(F)F)ccc12 [Example 392, 1-(4-hydroxypyridin-3-yl)-4-(methyl-amino)-7-(trifluoromethyl)pyrido[2,3-d]-pyrimidin-2(1H)-one]"
